Experimental data reported in patent US20230172849A1, “INHALED STATINS FOR TREATMENT OF VIRAL RESPIRATORY DISEASES” (priority 2020, published 2023).
Entries after “also recorded” stand apart in the source; their conditions may differ. Structures can show the parent of a compound that is named as a salt. Where two headings read alike, the source gives them in different places.

Assays:
[1] = target: SARS-CoV-2 Spike S1 (RBD) (Severe acute respiratory syndrome coronavirus 2, UniProt P0DTC2); test: biochemical; format: binding
[2] = system: SARS-CoV-2; test: combination therapy, viral load by RT-PCR (ORF1ab gene) in Calu-3 cells; format: cell-based; set-up: key to enhanced decrease of viral load, combination vs two single agents: Each combination that showed an enhanced decrease of viral load as compared with the two single agents is denoted by “E”; Combinations that showed a slight trend towards an enhanced decrease of viral load as compared with the two single agents is denoted by “(e)”; —; settings: for decrease of viral load, agent alone: FIG. 31, mixed with SARS-CoV-2 (MOI 0.01) 1 hour at room temperature, RT-PCR (ORF1ab) 24 hours post infection, of the control
[3] = system: human bronchial epithelial cells (HBE1); test: depletion of total cellular cholesterol in HBE1 cells; format: cell-based; settings: HBE1, 48 hours; 50-400 nM and 1-20 μM; concentrations marked (*) in FIGS. 1, 2; p<0.05
Experimental: Total cellular cholesterol was measured by spectrophotometry, and plotted as the ratio of absorbance to total protein in μg. […] Significant reductions in cholesterol content (≥50%, p<0.05) are indicated (*).

[4] = system: SARS-CoV-2; format: cell-based
[5] = Table 2, read-out: Affinity (nM) of binding to SARS-COV2 Spike protein

**Q.** For `CCC(C)(C)C(=O)O[C@H]1C[C@@H](C)C=C2C=C[C@H](C)[C@H](CC[C@@H](O)C[C@@H](O)CC(=O)O)[C@H]21` [INS106, Simvastatin Hydroxy Acid, Ammonium Salt], which Kd [1, 5] is on record?
**A.** 1570 to 2600 nM

**Q.** Which “binding to SARS-COV-2 S-protein (in words)” value (“binding” below) ([1]; MST binding assay) does the source give for Hydroxy Simvastatin [INS102-S] here?
**A.** weak binding

**Q.** Which “decrease of viral load, agent alone” value [2] does the source give for `C[C@@H]1C[C@H]2[C@@H]3CCC4=CC(=O)C=C[C@]4(C)[C@@]3(F)[C@@H](O)C[C@]2(C)[C@@]1(O)C(=O)CO` [Dexamethasone, dexamethasone] here?
**A.** 46%

**Q.** For `CC(C)c1c(C(=O)Nc2ccccc2)c(-c2ccccc2)c(-c2ccc(F)cc2)n1CC[C@@H](O)C[C@@H](O)CC(=O)O` [INS104, Atorvastatin], which “decrease of viral load, agent alone” value [2] is on record?
**A.** 22%

**Q.** What about the “decrease in viral load, combination with remdesivir or dexamethasone vs monotherapies” value ([2]; FIGS. 30, 31, statin and SARS-CoV-2 (MOI 0.01) mixed 1 hour at room temperature, 24 hours post infection) of the same molecule?
**A.** synergistic

**Q.** What about the “enhanced decrease of viral load, combination vs two single agents” value (“enhanced decrease of viral load” for short) ([2]; statin 0.2 μM + Dex 0.1 μM) of the same molecule?
**A.** —

**Q.** What about the “enhanced decrease of viral load” value ([2]; statin 0.2 μM + Dex 1 μM) of the same molecule?
**A.** (e)

**Q.** What about the “enhanced decrease of viral load” value ([2]; statin 0.2 μM + Dex 10 μM) of the same molecule?
**A.** —

**Q.** What about the “enhanced decrease of viral load” value ([2]; statin 0.2 μM + Remde 1) of the same molecule?
**A.** —

**Q.** What about the “enhanced decrease of viral load” value ([2]; statin 0.2 μM + Remde 10) of the same molecule?
**A.** —

**Q.** What about the “enhanced decrease of viral load” value ([2]; statin 0.2 μM + Remde 100) of the same molecule?
**A.** (e)

**Q.** And the “enhanced decrease of viral load” value ([2]; statin 1 μM + Dex 0.1 μM)?
**A.** —

**Q.** And the “enhanced decrease of viral load” value ([2]; statin 1 μM + Dex 1 μM)?
**A.** E

**Q.** What about the “enhanced decrease of viral load” value ([2]; statin 1 μM + Dex 10 μM) of the same molecule?
**A.** (e)

**Q.** And the “enhanced decrease of viral load” value ([2]; statin 1 μM + Remde 1)?
**A.** —

**Q.** What about the “enhanced decrease of viral load” value ([2]; statin 1 μM + Remde 10) of the same molecule?
**A.** (e)

**Q.** And the “enhanced decrease of viral load” value ([2]; statin 1 μM + Remde 100)?
**A.** —

**Q.** What about the “enhanced decrease of viral load” value ([2]; statin 5 μM + Dex 0.1 μM) of the same molecule?
**A.** —

**Q.** And the “enhanced decrease of viral load” value ([2]; statin 5 μM + Dex 1 μM)?
**A.** synergistic enhancement and E

**Q.** What about the “enhanced decrease of viral load” value ([2]; statin 5 μM + Dex 10 μM) of the same molecule?
**A.** enhancement was maintained at a lower level and E

**Q.** And the “enhanced decrease of viral load” value ([2]; statin 5 μM + Remde 1)?
**A.** —

**Q.** And the “enhanced decrease of viral load” value ([2]; statin 5 μM + Remde 10)?
**A.** enhancement in the decrease of viral load and E

**Q.** And the “enhanced decrease of viral load” value ([2]; statin 5 μM + Remde 100)?
**A.** —

**Q.** What about the Kd [1] of the same molecule?
**A.** 234 to 456 nM

**Q.** And the Remarks [1]?
**A.** Strong Binding

**Q.** What about the S/N [1] of the same molecule?
**A.** 8.5-8.7

**Q.** And the “binding” value [1]?
**A.** bind with SARS-COV-2 S-protein at nanomolar (nM) concentrations

**Q.** What about the Kd ([1]; read-out: Affinity (nM) of binding to SARS-COV2 Spike protein) of the same molecule?
**A.** 234 to 456 nM

**Q.** Which “binding” value ([1]; MST binding assay) does the source give for `C[C@H](N[C@@H](CCc1ccccc1)C(=O)O)C(=O)N1CCC[C@H]1C(=O)O` [INS107] here?
**A.** no binding is indicated

**Q.** `CC[C@H](C)C(=O)O[C@H]1C[C@@H](C)C=C2C=C[C@H](C)[C@H](CC[C@@H]3C[C@@H](O)CC(=O)O3)[C@H]21` [INS105, Lovastatin] was tested. Which Kd [1, 5] did it give?
**A.** 529 to 929 nM

**Q.** What does the source list for `CCC(C)(C)C(=O)O[C@H]1C[C@@H](C)C=C2C=C[C@H](C)[C@H](CC[C@@H]3C[C@@H](O)CC(=O)O3)[C@H]21` [INS102, Simvastatin]?
**A.** reduction in cholesterol content [3]: ≥ 50%; enhanced decrease of viral load, combination vs two single agents ([2]; statin 0.1 μM + Dex 0.1 μM): —; enhanced decrease of viral load, combination vs two single agents ([2]; statin 0.1 μM + Dex 1 μM): E; enhanced decrease of viral load, combination vs two single agents ([2]; statin 0.1 μM + Dex 10 μM): E; enhanced decrease of viral load, combination vs two single agents ([2]; statin 0.1 μM + Remde 1): —; enhanced decrease of viral load, combination vs two single agents ([2]; statin 0.1 μM + Remde 10): —; enhanced decrease of viral load, combination vs two single agents ([2]; statin 0.1 μM + Remde 100): —; enhanced decrease of viral load, combination vs two single agents ([2]; statin 1 μM + Dex 0.1 μM): E; enhanced decrease of viral load, combination vs two single agents ([2]; statin 1 μM + Dex 1 μM): E; enhanced decrease of viral load, combination vs two single agents ([2]; statin 1 μM + Dex 10 μM): —; enhanced decrease of viral load, combination vs two single agents ([2]; statin 1 μM + Remde 1): —; enhanced decrease of viral load, combination vs two single agents ([2]; statin 1 μM + Remde 10): —; enhanced decrease of viral load, combination vs two single agents ([2]; statin 1 μM + Remde 100): E; enhanced decrease of viral load, combination vs two single agents ([2]; statin 10 μM + Dex 0.1 μM): —; enhanced decrease of viral load, combination vs two single agents ([2]; statin 10 μM + Dex 1 μM): —; enhanced decrease of viral load, combination vs two single agents ([2]; statin 10 μM + Dex 10 μM): —; enhanced decrease of viral load, combination vs two single agents ([2]; statin 10 μM + Remde 1): —; enhanced decrease of viral load, combination vs two single agents ([2]; statin 10 μM + Remde 10): —; enhanced decrease of viral load, combination vs two single agents ([2]; statin 10 μM + Remde 100): E; Average (percent cell viability) ([4]; Case A: compound added 1 h after infection, 72 h contact, 0.1 uM): 5.506%; Average (percent cell viability) ([4]; Case A: compound added 1 h after infection, 72 h contact, 1 uM): 7.304%; Average (percent cell viability) ([4]; Case A: compound added 1 h after infection, 72 h contact, 10 uM): 17.48%; Average (percent cell viability) ([4]; Case B: compound added 24 h after infection, 48 h contact, 0.1 uM): 6.427%; Average (percent cell viability) ([4]; Case B: compound added 24 h after infection, 48 h contact, 1 uM): 9.597%; Average (percent cell viability) ([4]; Case B: compound added 24 h after infection, 48 h contact, 10 uM): 11.85%; Average (percent cell viability) ([4]; Case C: compound added 48 h after infection, 24 h contact, 0.1 uM): 3.967%; Average (percent cell viability) ([4]; Case C: compound added 48 h after infection, 24 h contact, 1 uM): 2.16%; Average (percent cell viability) ([4]; Case C: compound added 48 h after infection, 24 h contact, 10 uM): 6.117%; Average (percent cell viability) ([4]; Case D: pre-treated 6 h, then infected 72 h, 0.1 uM): 35.26%; Average (percent cell viability) ([4]; Case D: pre-treated 6 h, then infected 72 h, 1 uM): 31.9%; Average (percent cell viability) ([4]; Case D: pre-treated 6 h, then infected 72 h, 10 uM): 33.31%; Average (percent cell viability) ([4]; Case E: pre-treated 24 h, then infected 72 h, 0.1 uM): −0.98%; Average (percent cell viability) ([4]; Case E: pre-treated 24 h, then infected 72 h, 1.0 uM): 29.28%; Average (percent cell viability) ([4]; Case E: pre-treated 24 h, then infected 72 h, 10.0 uM): 46.90%; Average (percent cell viability) ([4]; Case F: compound 1 h before infection (coinc 1 h), then virus 72 h, 0.1 uM): 10.1%; Average (percent cell viability) ([4]; Case F: compound 1 h before infection (coinc 1 h), then virus 72 h, 1 uM): 8.721%; Average (percent cell viability) ([4]; Case F: compound 1 h before infection (coinc 1 h), then virus 72 h, 10 uM): 19.4%

**Q.** What does the source list for `CC[C@H](C)C(=O)O[C@H]1C[C@H](O)C=C2C=C[C@H](C)[C@H](CC[C@@H](O)C[C@@H](O)CC(=O)O)[C@H]21` [INS101, Pravastatin Sodium]?
**A.** binding to SARS-COV-2 S-protein (in words) ([1]; MST binding assay): weak binding; also recorded: none or very low affinity; Remarks ([1]; Table 1, binding to SARS-CoV-2 S1): No interaction/weak binder
